{"source": "patent US10759783B2", "about": "“Biaryl inhibitors of Bruton'S tyrosine kinase” (BIOGEN MA INC., priority 2013, dated 2020)"}
{"molecular_target": "T1, BTK enzyme (Homo sapiens, UniProt Q06187)", "T1 construct": "purchased Upstate 14-552", "T1 sequence (Q06187 whole entry)": "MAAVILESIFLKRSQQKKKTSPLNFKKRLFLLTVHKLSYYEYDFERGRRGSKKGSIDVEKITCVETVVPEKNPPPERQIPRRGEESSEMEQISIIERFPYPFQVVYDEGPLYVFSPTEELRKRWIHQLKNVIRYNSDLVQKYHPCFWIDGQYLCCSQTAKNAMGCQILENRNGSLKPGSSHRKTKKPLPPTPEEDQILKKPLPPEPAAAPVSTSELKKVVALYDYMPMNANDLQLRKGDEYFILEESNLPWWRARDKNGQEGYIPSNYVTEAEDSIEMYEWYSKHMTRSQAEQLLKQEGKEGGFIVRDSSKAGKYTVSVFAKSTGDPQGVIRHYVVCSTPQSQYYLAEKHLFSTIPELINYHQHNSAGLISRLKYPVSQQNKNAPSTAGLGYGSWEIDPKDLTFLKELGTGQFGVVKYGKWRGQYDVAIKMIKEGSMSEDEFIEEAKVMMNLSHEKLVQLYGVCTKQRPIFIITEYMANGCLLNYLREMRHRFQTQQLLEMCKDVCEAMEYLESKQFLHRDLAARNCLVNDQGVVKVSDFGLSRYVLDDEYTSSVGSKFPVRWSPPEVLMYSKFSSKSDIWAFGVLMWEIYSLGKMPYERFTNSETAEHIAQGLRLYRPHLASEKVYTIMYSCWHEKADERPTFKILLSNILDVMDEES", "assay": "In vitro BTK kinase assay: BTK-POLYGAT-LS assay", "assay_type": "biochemical", "conditions": "ATP 10 μM, read-out: IC50 (10uMATP)", "description": "The purpose of the BTK in vitro assay is to determine compound potency against BTK through the measurement of IC50. […] For a typical assay, a 24 μL aliquot of a ATP/peptide master mix (final concentration; ATP 10 μM, polyGAT 100 nM) in kinase buffer (10 mM Tris-HCl pH 7.5, 10 mM MgCl2, 200 μM Na3PO4, 5 mM DTT, 0.01% Triton X-100, and 0.2 mg/ml casein) is added to each well. […] The assay is incubated for 30 minutes before being stopped with 28 μL of a 50 mM EDTA solution. […] The plate is covered and incubated for 45 minutes at room temperature.", "units": {"IC50": "nM"}}
{"smiles": "CN1CCN(c2ccc(Nc3nccc(-c4ccc5c(c4)CCCC5NC(=O)c4cnc(C(C)(C)C)s4)n3)nc2)CC1", "note": "(stereo not drawn) [Example I-96, 2-(tert-butyl)-N-(6-(2-((5-(4-methylpiperazin-1-yl)pyridin-2-yl)amino)pyrimidin-4-yl)-1,2,3,4-tetrahydronaphthalen-1-yl)thiazole-5-carboxamide]", "IC50": "10 to 99"}
{"smiles": "Cn1cc(Nc2nccc(-c3ccc4c(c3)OCCC4NC(=O)c3cnc(C(C)(C)C)s3)n2)cn1", "note": "(stereo not drawn) [Example I-97, 2-(tert-butyl)-N-(7-(2-((1-methyl-1H-pyrazol-4-yl)amino)pyrimidin-4-yl)chroman-4-yl)thiazole-5-carboxamide]", "IC50": "< 10"}
{"smiles": "Cn1cc(Nc2nccc(-c3ccc4c(c3)COCC4NC(=O)c3cnc(C(C)(C)C)s3)n2)cn1", "note": "(stereo not drawn) [Example I-98, 2-(tert-butyl)-N-(7-(2-((1-methyl-1H-pyrazol-4-yl)amino)pyrimidin-4-yl)isochroman-4-yl)thiazole-5-carboxamide]", "IC50": "10 to 99"}
{"smiles": "Cc1cc(-c2ccnc(Nc3cnn(C)c3)n2)cnc1CNC(=O)c1cnc(C(C)(C)C)s1", "note": "[Example I-100, 2-(tert-butyl)-N-((3-methyl-5-(2-((1-methyl-1H-pyrazol-4-yl)amino)pyrimidin-4-yl)pyridin-2-yl)methyl)thiazole-5-carboxamide]", "IC50": "10 to 99"}
{"smiles": "Cc1cc(-c2ccnc(Nc3cnn(C)c3)n2)cnc1CNC(=O)c1cc2c(s1)CCOC2", "note": "[Example I-101, N-((3-methyl-5-(2-((1-methyl-1H-pyrazol-4-yl)amino)pyrimidin-4-yl)pyridin-2-yl)methyl)-6,7-dihydro-4H-thieno[3,2-c]pyran-2-carboxamide]", "IC50": "10 to 99"}
{"smiles": "Cc1nc(-c2ccnc(Nc3cnn(C)c3)c2)ccc1CNC(=O)c1cnc(C(C)(C)C)s1", "note": "[Example I-102, 2-(tert-butyl)-N-((6-methyl-2′-((1-methyl-1H-pyrazol-4-yl)amino)-[2,4′-bipyridin]-5-yl)methyl)thiazole-5-carboxamide]", "IC50": "10 to 99"}
{"smiles": "Cc1nc(-c2ccnc(Nc3cnn(C)c3)n2)ccc1CNC(=O)c1cnc(C(C)(C)C)s1", "note": "[Example I-103, 2-(tert-butyl)-N-((2-methyl-6-(2-((1-methyl-1H-pyrazol-4-yl)amino)pyrimidin-4-yl)pyridin-3-yl)methyl)thiazole-5-carboxamide]", "IC50": "10 to 99"}
{"smiles": "Cc1nc(-c2ccnc(Nc3cnn(C)c3)n2)ccc1CNC(=O)c1cc2c(s1)CCOC2", "note": "[Example I-104, N-((2-methyl-6-(2-((1-methyl-1H-pyrazol-4-yl)amino)pyrimidin-4-yl)pyridin-3-yl)methyl)-6,7-dihydro-4H-thieno[3,2-c]pyran-2-carboxamide]", "IC50": "100 to 999"}
{"smiles": "Cc1cc(-c2ccnc(Nc3cnn(C)c3)n2)ccc1C(C)NC(=O)c1cc2c(s1)CCOC2", "note": "(stereo not drawn) [Example I-105, N-(1-(2-methyl-4-(2-((1-methyl-1H-pyrazol-4-yl)amino)pyrimidin-4-yl)phenyl)ethyl)-6,7-dihydro-4H-thieno[3,2-c]pyran-2-carboxamide]", "IC50": "10 to 99"}
{"smiles": "Cc1cc(-c2ccnc(Nc3cnn(C)c3)n2)ccc1C(C)NC(=O)c1cnc(C(C)(C)C)s1", "note": "(stereo not drawn) [Example I-106, 2-(tert-butyl)-N-(1-(2-methyl-4-(2-((1-methyl-1H-pyrazol-4-yl)amino)pyrimidin-4-yl)phenyl)ethyl)thiazole-5-carboxamide]", "IC50": "< 10"}
{"smiles": "Cc1cc(-c2ccnc(N)n2)ccc1C(C)NC(=O)c1cnc(C(F)(F)F)s1", "note": "(stereo not drawn) [Example I-107, N-(1-(4-(2-aminopyrimidin-4-yl)-2-methylphenyl)ethyl)-2-(trifluoromethyl)thiazole-5-carboxamide]", "IC50": "1000 to 10000"}
{"smiles": "Cc1cc(-c2ccnc(Nc3cnn(C)c3)n2)ccc1C(CO)NC(=O)c1cc2c(s1)CCOC2", "note": "(stereo not drawn) [Example I-109, N-(2-hydroxy-1-(2-methyl-4-(2-((1-methyl-1H-pyrazol-4-yl)amino)pyrimidin-4-yl)phenyl)ethyl)-6,7-dihydro-4H-thieno[3,2-c]pyran-2-carboxamide]", "IC50": "10 to 99"}
